Columns and labels:
[1] = target: T1, GST tagged PIP4KtypeIIB (Homo sapiens, UniProt P78356); experiment: Trans-FI P kinase assay PIP4K2B (PIP4KtypeIIB inhibition assay); assay type: biochemical; conditions: Table 4; compounds listed under IC50 range headings; 100 uM GTP, 5 nM PIP4KIIB; read-out: Trans-FI P kinase assays: PIP4K2B IC50
T1 construct: made in house; host or cells: E. coli
T1 sequence (P78356 1-416): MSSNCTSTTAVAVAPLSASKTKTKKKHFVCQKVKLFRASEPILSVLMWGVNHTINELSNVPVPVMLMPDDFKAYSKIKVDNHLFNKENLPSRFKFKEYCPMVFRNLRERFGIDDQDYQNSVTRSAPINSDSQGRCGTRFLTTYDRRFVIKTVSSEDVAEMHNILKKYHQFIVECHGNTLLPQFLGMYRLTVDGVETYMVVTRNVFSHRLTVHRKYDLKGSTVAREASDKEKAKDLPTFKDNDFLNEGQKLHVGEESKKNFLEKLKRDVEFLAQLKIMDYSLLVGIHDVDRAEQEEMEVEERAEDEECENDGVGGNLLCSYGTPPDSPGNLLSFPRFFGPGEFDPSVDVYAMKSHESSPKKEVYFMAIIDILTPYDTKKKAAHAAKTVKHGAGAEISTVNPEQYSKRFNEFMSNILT
Description: GST tagged PIP4KtypeIIA and B enzymes were overexpressed in E. Coli and purified to >80% homogeneity. Phosphatidyl inositol-5-phosphate (PI5P, Cat. #850152, Avanti Polar Lipids Inc.) was used as the lipid substrate and phosphatidyl ethanolamine (DOPE 18:1, Cat. #850725, Avanti Polar Lipids Inc.) was used as the carrier lipid for assays. Ultrapure ATP and GTP was purchased from Bellbrooke Labs. ADP Glo reagents were obtained from Promega. Transcreener FI reagent was obtained from Bellbrooke labs.
1. HEPES buffer mix: 200 mM HEPES pH 7.4, 50 mM MgCl2, 0.05% v/v triton×100
2. HNE buffer: 20 mM HEPES, pH 7.4, 100 mM NaCl, 0.5 mM EGTA
3. H:E buffer: 30 mM HEPES, pH 7.4, 1 mM EGTA
GST-tagged PIP4KtypeIIB (3.4 uL, 2.77 mg/mL) was diluted to 5 mL using HNE buffer to yield 5× enzyme stock (25 nM)
Lipid Preparation: In a 10 mL pyrex glass vial, lug of PI5P and lug of DOPE were suspended in 2.5 mL of HEPES buffer mix and 2.5 mL of H:E buffer. The contents were mixed and sonicated for 3 min to yield a translucent lipid stock.
Compound Preparation: Compounds were stored as 5 mM stocks in neat DMSO as room temperature in glass vials. 5 mM stocks were diluted to 2 mM and then serially diluted (3×) in neat DMSO in 96 well polypropylene plates. From the serially diluted stocks, 3 uL was delivered into 250 uL of 25% DMSO (in water) to generate 5× compound stocks. Typically, the highest compound conc. was 24 uM.
The assay volume was kept at 25 uL. To each well of the reaction plate, 10 uL of lipid stock (1:1 ratio PI5P:DOPE) was delivered. This was followed by the addition of 5 uL of compound in 25% DMSO. Then, to each well, 5 uL of 25 nM (5×) typeIIB enzyme was delivered. The contents were mixed well and incubated for 1 h at 27 C. After 1 h, reaction was initiated by adding 5 uL of 500 uM GTP and the contents were mixed well with a multi-channel pipetteman. The final concentration of the reagents are as follows: 50 mM HEPES, pH 7.3, 10 mM MgCl2, 20 mM NaCl, 0.01% v/v triton-X100, 5% DMSO, 100 uM GTP, 80 uM (2 ug) PI5P, 2 ug DOPE, and 5 nM PIP4KIIB Typically, the highest conc. of compounds was 4.8 uM and the lowest conc. was 0.
After 2 h, the reaction was quenched by adding 25 uL of transcreener FI reagent. The contents were incubated at RT for 1 h and the Fluorescence (Ex: 584 Em: 623) was read using Molecular Devices Paradigm plate reader. […] The blanks were averaged and subtracted from all other wells. Using a calibration curve, RFU was converted to uM GDP (product). IC50 was calculated by plotting the residual activity (expressed as % No inhibitor control) vs. log [Inh. conc.] Table 2 represents PI5P4K activity of compounds (Example No.) of the invention arranged in accordance with the inhibition of PIP4K2 A kinase assay.

[2] = target: T2, PIP4K2A (full length protein, SignalChem) (Homo sapiens, UniProt P48426); experiment: Kinase Assay PIP4K2 A (Sprint); ADP-Glo biochemical assay; conditions: Table 2; compounds listed under IC50 range headings
T2 construct: 4 nM PIP4K2A (full length protein, SignalChem); purchased SignalChem
T2 sequence (P48426 1-406): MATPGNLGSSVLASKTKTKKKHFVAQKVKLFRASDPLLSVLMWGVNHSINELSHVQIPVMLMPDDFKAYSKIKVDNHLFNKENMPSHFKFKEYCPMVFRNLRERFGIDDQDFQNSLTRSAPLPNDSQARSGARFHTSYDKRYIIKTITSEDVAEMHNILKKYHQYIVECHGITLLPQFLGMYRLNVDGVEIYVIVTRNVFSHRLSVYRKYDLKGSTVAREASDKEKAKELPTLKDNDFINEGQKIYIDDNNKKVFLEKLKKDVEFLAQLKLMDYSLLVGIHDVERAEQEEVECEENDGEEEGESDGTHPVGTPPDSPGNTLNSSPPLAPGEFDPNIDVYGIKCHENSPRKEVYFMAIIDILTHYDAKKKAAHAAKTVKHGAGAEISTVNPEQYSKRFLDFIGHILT
Experimental: Dilution series of the compounds were prepared in DMSO at 100 times the final assay concentration (n1=n0/3 in 10 points). The compounds were further diluted to three times the assay concentration in assay buffer (20 mM MOPS pH 7.2, 25 mM magnesium chloride, 0.005% Tween 20). 6 μL of the diluted compounds were added to a 384 well assay plate followed by 9 μL of a mix consisting of 4 nM PIP4K2A (full length protein, SignalChem) and 100 μM PI(5)P diC8 (Tebu-Bio). Enzyme and compounds were pre-incubated at room temperature for 15 min.
Then 3 μL of a solution containing 60 μM ATP (Promega) in assay buffer was added to the wells containing compound and enzyme and mixing was performed by pipetting several times. The reaction was incubated at room temperature for 1 h. Then 18 μL of ADP-Glo™ Reagent (Promega) was added to stop the kinase reaction and deplete the unconsumed ATP, mixing was performed by pipetting several times. The plate was incubated at room temperature for 40 min before addition of 36 μL of Kinase Detection Reagent (Promega) to convert ADP to ATP and introduce luciferase and luciferin to detect ATP. The reaction was incubated at room temperature for 40 min before the luminescence was measured in a in a Victor 3V 1420 multilabel counter (Perkin Elmer).
Percent inhibition of the compounds as compared to dimethyl sulfoxide treated control samples was calculated. Compound concentration versus percent inhibition were fitted to generate IC50 values.

| SMILES | IC50 [1] [µM] | IC50 [2] [µM] |
| --- | --- | --- |
| CN(C)C(=O)c1ccc(-c2cc(-c3cnc4c(c3)c(-c3cncnc3)cn4C)cnc2N)nc1 [Example 122, 2′-amino-N,N-dimethyl-5′-(1-methyl-3-(pyrimidin-5-yl)-1H-pyrrolo[2,3-b]pyridin-5-yl)-[2,3′-bipyridine]-5-carboxamide] | 1 to 2.5 | 0.1 to 1 |
| O=C(c1cc2c(-c3cncc(-c4ccc(N5CCCC5=O)cc4)c3)ccnc2[nH]1)N1CCCC(O)(C2CC2)C1 (centres unmarked) [Example 210, 1-(4-(5-(2-(3-cyclopropyl-3-hydroxypiperidine-1-carbonyl)-1H-pyrrolo[2,3-b]pyridin-4-yl)pyridin-3-yl)phenyl)pyrrolidin-2-one] | 0.1 to 1 | 0.1 to 1 |
| CN1CCn2c(cc3c(-c4cncc(-c5ccc(C(=O)N6CCC7(CC7)C6)cc5)c4)ccnc32)C1=O [Example 230, 4-(5-(4-(5-azaspiro[2.4]heptane-5-carbonyl)phenyl)pyridin-3-yl)-7-methyl-8,9-dihydropyrido[3′,2′:4,5]pyrrolo[1,2-a]pyrazin-6(7H)-one] | 0.1 to 1 | 0.1 to 1 |
| Cc1noc2nccc(-c3cncc(-c4ccc(N5CCCC5=O)cc4)c3)c12 [Example 307, 1-(4-(5-(3-methylisoxazolo[5,4-b]pyridin-4-yl)pyridin-3-yl)phenyl)pyrrolidin-2-one] | 0.1 to 1 | 1 to 2.5 |
| CN(C(=O)c1cc2c(-c3cncc(-c4ccc(N5CCCC5=O)cc4)c3)ccnc2[nH]1)c1cccnc1 [Example 310, N-methyl-4-(5-(4-(2-oxopyrrolidin-1-yl)phenyl)pyridin-3-yl)-N-(pyridin-3-yl)-1H-pyrrolo[2,3-b]pyridine-2-carboxamide] | 0.1 to 1 | 0.1 to 1 |
| CN(C(=O)c1cc2c(-c3cncc(-c4ccc(N5CCCC5=O)cc4)c3)ccnc2[nH]1)c1ccccc1 [Example 311, N-methyl-4-(5-(4-(2-oxopyrrolidin-1-yl)phenyl)pyridin-3-yl)-N-phenyl-1H-pyrrolo[2,3-b]pyridine-2-carboxamide] | 0.1 to 1 | 1 to 2.5 |
| CNC(=O)c1[nH]c2nccc(-c3cncc(-c4ccc(N5CCCC5=O)cc4)c3)c2c1C [Example 313, N,3-dimethyl-4-(5-(4-(2-oxopyrrolidin-1-yl)phenyl)pyridin-3-yl)-1H-pyrrolo[2,3-b]pyridine-2-carboxamide] | 0.1 to 1 | 1 to 2.5 |
| Cc1cc2nc(CNC(=O)c3cc4c(-c5cncc(-c6ccc(N7CCCC7=O)cc6)c5)ccnc4[nH]3)[nH]c2cc1C [Example 315, N-((5,6-dimethyl-1H-benzo[d]imidazol-2-yl)methyl)-4-(5-(4-(2-oxopyrrolidin-1-yl)phenyl)pyridin-3-yl)-1H-pyrrolo[2,3-b]pyridine-2-carboxamide] | 0.1 to 1 | 1 to 2.5 |

Continued, values first:

| IC50 [1] [µM] | IC50 [2] [µM] | SMILES |
| --- | --- | --- |
| 0.1 to 1 | 0.1 to 1 | CN(C)C(=O)c1ccc(-c2cc(-c3cnc4c(c3)c(-c3cccnc3)cn4C)cnc2N)nc1 [Example 121, 2′-amino-N,N-dimethyl-5′-(1-methyl-3-(pyridin-3-yl)-1H-pyrrolo[2,3-b]pyridin-5-yl)-[2,3′-bipyridine]-5-carboxamide] |
| 0.001 to 0.01 | 0.005 to 0.1 | COC(=O)c1cc2c(-c3cncc(-c4ccc(-c5nncn5C(C)C)cc4)c3)ccnc2[nH]1 [Example 211, methyl 4-(5-(4-(4-isopropyl-4H-1,2,4-triazol-3-yl)phenyl)pyridin-3-yl)-1H-pyrrolo[2,3-b]pyridine-2-carboxylate] |
| 0.01 to 0.1 | 0.005 to 0.1 | O=C(NCc1cccc2c1COB2O)c1cc2c(-c3cncc(-c4ccc(N5CCCC5=O)cc4)c3)ccnc2[nH]1 [Example 301, N-((1-hydroxy-1,3-dihydrobenzo[c][1,2]oxaborol-4-yl)methyl)-4-(5-(4-(2-oxopyrrolidin-1-yl)phenyl)pyridin-3-yl)-1H-pyrrolo[2,3-b]pyridine-2-carboxamide] |
| 0.001 to 0.01 | 0.005 to 0.1 | C[C@@H]1CCC(=O)N1c1ccc(-c2cncc(-c3ccnc4c3cc3n4CCN(C)C3=O)c2)cc1 [Example 306, (R)-7-methyl-4-(5-(4-(2-methyl-5-oxopyrrolidin-1-yl)phenyl)pyridin-3-yl)-8,9-dihydropyrido[3′,2′:4,5]pyrrolo[1,2-a]pyrazin-6(7H)-one] |
| 0.001 to 0.01 | 0.1 to 1 | O=C1CCCN1c1ccc(-c2cncc(-c3ccnc4c3cc3n4CCN(c4ccc5c(n4)OCCO5)C3=O)c2)cc1 [Example 308, 7-(2,3-dihydro-[1,4]dioxino[2,3-b]pyridin-6-yl)-4-(5-(4-(2-oxopyrrolidin-1-yl)phenyl)pyridin-3-yl)-8,9-dihydropyrido[3′,2′:4,5]pyrrolo[1,2-a]pyrazin-6(7H)-one] |
| 0.01 to 0.1 | 0.1 to 1 | Cc1c[nH]c2nccc(-c3cnc(N)c(-c4ccc(N5CCCC5=O)cc4)c3)c12 [Example 309, 1-(4-(2-amino-5-(3-methyl-1H-pyrrolo[2,3-b]pyridin-4-yl)pyridin-3-yl)phenyl)pyrrolidin-2-one] |
| 0.01 to 0.1 | 1 to 2.5 | O=C(Nc1ccccn1)c1cc2c(-c3cncc(-c4ccc(N5CCCC5=O)cc4)c3)ccnc2[nH]1 [Example 312, 4-(5-(4-(2-oxopyrrolidin-1-yl)phenyl)pyridin-3-yl)-N-(pyridin-2-yl)-1H-pyrrolo[2,3-b]pyridine-2-carboxamide] |
| 0.01 to 0.1 | 1 to 2.5 | O=C(Nc1ccncc1)c1cc2c(-c3cncc(-c4ccc(N5CCCC5=O)cc4)c3)ccnc2[nH]1 [Example 314, 4-(5-(4-(2-oxopyrrolidin-1-yl)phenyl)pyridin-3-yl)-N-(pyridin-4-yl)-1H-pyrrolo[2,3-b]pyridine-2-carboxamide] |
